Reference: US20040142937A1, “Use of heterocyclic amine-type compounds as neuroprotective agents” (priority 2002, published 2004)

How the values were obtained:
[1] = test system: rat model of cerebral infarction; settings: administered before the event; cited from earlier work
rats = assay: 3-acetylpyridine (3-AP) neurotoxicity model in rats; format: in vivo, rat
[2] = sumanirole 1-20 mg/kg PO, given before or after 3-AP, sacrifice 96 hours later, dose-related

CN[C@@H]1Cc2cccc3[nH]c(=S)n(c23)C1
melting point: 210 to 213 °C

CN[C@@H]1Cc2cccc3[nH]c(=S)n(c23)C1.O=C(O)CC(O)C(=O)O
melting point: 195 to 196 °C

CCN(CC)C(=O)N[C@H]1C=C2c3cccc4[nH]cc(c34)C[C@H]2N(C)C1 [Lisuride]
brain edema [1]: reduced
survival time [1]: prolonged

CN[C@@H]1Cc2cccc3[nH]c(=O)n(c23)C1.O=C(O)/C=C\C(=O)O [Sumanirole, (5R)-5-(methylamino)-5,6-dihydro-4H-imidazo[4,5,1-ij]quinolin-2(1H)-one (Z)-2-butenedioate (1:1)]
neuroprotective effects of sumanirole after pretreatment with raclopride (rats; pretreatment with raclopride): did not block
3-AP induced reduction in rotorod performance (rats; sumanirole 1-20 mg/kg PO, given before or after 3-AP, dose-related): significantly attenuated
3-AP induced reduction in cerebellar ATP (rats; [2]): significantly attenuated
3-AP induced reduction in cerebellar cGMP (rats; [2]): significantly attenuated
inferior olive neuronal cell loss produced by 3-AP (rats; sumanirole 1-20 mg/kg PO, neuronal cell counts 96 hours later): significantly reduced
